# Experimental data: paper PMC7914367, “Dual-ligand supramolecular nanofibers inspired by the renin-angiotensin system for the targeting and synergistic therapy of myocardial infarction” (Theranostics, 2021)
# Peptide text beside a SMILES is read from it. * marks the point of attachment. X1 = CN1/C(=C/C=C/C=C/C2=[N+](CCCCCC(=O)*)c3ccc4ccccc4c3C2(C)C)C(C)(C)c2c1ccc1ccccc21
# System: infarcted heart
# Set-up: species or system C57BL/6 mice
# Conditions: mouse, in vivo
# Description: ^Cy5.5TDCNfs, ^Cy5.5SAA1-7, and ^Cy5.5Ang1-7 were injected intravenously into the mice via tail vein at a dose of 0.2 mg. The images were captured at the prefixed time. Next, the mice were sacrificed to harvest their hearts and major organs. The samples were imaged at an excitation wavelength of 630 nm and an emission wavelength of 700 nm using an in vivo imaging system (FX PRO, BRUKER, Germany). The images were analyzed using the BRUKER Molecular Imaging Software. The targeting ability of compounds was defined by HTI = heart fluorescence emission/liver fluorescence emission.
# Frozen sections were prepared in vivo, as described previously. For drugs distribution, near-infrared laser imager (GE Amersham Typhoon, Sweden) was used to capture full cross section of hearts. For co-localization experiments, the mice hearts were dissected 24 h post-injection of drugs. Anti-AT1R primary antibody (1:200 dilution) was used as the primary antibody. For fibrosis investigation, the frozen sections were incubated with primary antibodies against α-SMA (1:400 dilution). […]
# manufacturer ’s protocol. […] The TUNEL positive cells were observed by the fluorescence microscope (λexc = 488 nm for TUNEL, λexc = 405 […]
# Intracellular ROS was quantified with dihydroethidium (DHE). […] Intracellular ROS were detected by the fluorescence microscope (λexc = 532 nm for DHE, λexc = 405 nm for Hoechst 33342). […]
smiles,measurement,value
CC[C@H](C)[C@H](NC(=O)[C@H](Cc1ccc(O)cc1)NC(=O)[C@@H](NC(=O)[C@H](CCCNC(=N)N)NC(=O)[C@H](CC(=O)O)NC(=O)CNC(=O)CCCCC[N+]1=C(/C=C/C=C/C=C2/N(C)c3ccc4ccccc4c3C2(C)C)C(C)(C)c2c1ccc1ccccc21)C(C)C)C(=O)N[C@@H](Cc1c[nH]cn1)C(=O)N1CCC[C@H]1C(=O)O [Cy5.5Ang1-7] (X1-GDRVYIHP-OH),overlapping signals with AT1R in infarct zone compared with Cy5.5TDCNfs group,significantly lower
